Test results from the NIST ThermoML archive (doi:10.1016/j.fluid.2005.03.030).

Experiment: xn = mol fraction of the nth substance listed
Conditions: Liquid, Falling body viscometer

COCCOCCOCCOCCOC [2,5,8,11,14-pentaoxapentadecane] + FCC(F)(F)F
viscosity [mPa·s]
Conditions | 10000 kPa | 20000 kPa | 30000 kPa | 40000 kPa | 50000 kPa | 60000 kPa | 70000 kPa | 80000 kPa | 90000 kPa | 100000 kPa
293.15 K, x2 = 0.2769 | 3.132 | 3.378 | 3.669 | 3.992 | 4.341 | 4.71 | 5.095 | 5.495 | 5.907 | 6.329
293.15 K, x2 = 0.4433 | 2.335 | 2.537 | 2.765 | 3.014 | 3.282 | 3.568 | 3.871 | 4.191 | 4.527 | 4.877
293.15 K, x2 = 0.6333 | 1.514 | 1.679 | 1.851 | 2.031 | 2.219 | 2.414 | 2.617 | 2.827 | 3.045 | 3.269
293.15 K, x2 = 0.8797 | 0.557 | 0.613 | 0.671 | 0.733 | 0.796 | 0.863 | 0.932 | 1.003 | 1.077 | 1.154
313.15 K, x2 = 0.2769 | 2.001 | 2.197 | 2.395 | 2.601 | 2.816 | 3.043 | 3.282 | 3.535 | 3.803 | 4.088
313.15 K, x2 = 0.4433 | 1.527 | 1.674 | 1.824 | 1.978 | 2.14 | 2.31 | 2.49 | 2.68 | 2.881 | 3.094
313.15 K, x2 = 0.6333 | 1.046 | 1.151 | 1.26 | 1.374 | 1.493 | 1.616 | 1.745 | 1.878 | 2.016 | 2.159
313.15 K, x2 = 0.8797 | 0.412 | 0.46 | 0.506 | 0.553 | 0.6 | 0.647 | 0.695 | 0.744 | 0.794 | 0.845
333.15 K, x2 = 0.2769 | 1.406 | 1.533 | 1.664 | 1.8 | 1.941 | 2.086 | 2.236 | 2.391 | 2.549 | 2.712
333.15 K, x2 = 0.4433 | 1.097 | 1.195 | 1.297 | 1.402 | 1.512 | 1.624 | 1.741 | 1.861 | 1.984 | 2.111
333.15 K, x2 = 0.6333 | 0.774 | 0.845 | 0.922 | 1.003 | 1.087 | 1.173 | 1.26 | 1.349 | 1.438 | 1.529
333.15 K, x2 = 0.8797 | 0.321 | 0.364 | 0.405 | 0.444 | 0.483 | 0.522 | 0.561 | 0.6 | 0.64 | 0.681
353.15 K, x2 = 0.2769 | 1.038 | 1.133 | 1.229 | 1.328 | 1.431 | 1.539 | 1.653 | 1.773 | 1.9 | 2.035
353.15 K, x2 = 0.4433 | 0.834 | 0.908 | 0.984 | 1.064 | 1.147 | 1.233 | 1.323 | 1.415 | 1.51 | 1.609
353.15 K, x2 = 0.6333 | 0.609 | 0.665 | 0.725 | 0.788 | 0.854 | 0.921 | 0.99 | 1.061 | 1.132 | 1.205
353.15 K, x2 = 0.8797 | 0.256 | 0.299 | 0.336 | 0.37 | 0.404 | 0.436 | 0.469 | 0.501 | 0.533 | 0.565
373.15 K, x2 = 0.2769 | 0.832 | 0.907 | 0.986 | 1.069 | 1.156 | 1.247 | 1.342 | 1.441 | 1.545 | 1.654
373.15 K, x2 = 0.4433 | 0.662 | 0.72 | 0.783 | 0.85 | 0.921 | 0.994 | 1.069 | 1.147 | 1.226 | 1.307
373.15 K, x2 = 0.6333 | 0.471 | 0.524 | 0.577 | 0.631 | 0.685 | 0.739 | 0.794 | 0.849 | 0.904 | 0.96
373.15 K, x2 = 0.8797 | 0.195 | 0.234 | 0.268 | 0.3 | 0.33 | 0.36 | 0.39 | 0.419 | 0.448 | 0.478
